Measured values from patent US8604034B2, “Substituted imidazo[1,2-α]pyrrolo[1,2-d]pyrazines for treating respiratory syncytial virus (RSV) infections” (Biota Scientific Management Pty Ltd., priority 2010, dated 2013).
Read-outs that look alike come from different tables or passages of the source.

Tested on: RSV A2
Assay: RSV antiviral cytopathic effect (CPE) assay
Type: cell-based
Conditions: human respiratory syncytial virus, HEp-2, 120 h, HEp2 cells infected with RSV A2 (moi ~0.01), 5 days, MTT readout
Description: Compounds of the invention were tested for their antiviral activity against respiratory syncytial virus. Cytopathic effect (CPE) assays were performed essentially as described in the literature (see for example Watanabe et al, 1994, J. Virological Methods, 48:257). Serial dilutions of the test compounds were made in 96 well plates. HEp2 cells (1.0×10^4 cells/well) were infected with RSV at a low multiplicity of infection (e.g. RSV A2 at an moi of ˜0.01) and added to plates to assess antiviral activity. Uninfected HEp2 cells were used to assess compound cytotoxicity. Assays were incubated for 5 days at 37° C. in a 5% CO2 atmosphere. The extent of CPE was determined via metabolism of the vital dye 3-(4,5-dimethylthiaxol-2-yl)-2,5-diphenyltetrazolium bromide (MTT). MTT (1 mg/ml) was added to each well and plates incubated for 2 hours incubation at 37° C. Wells were aspirated, iso-propanol (200 μL) was added and absorbance values read at 540/650 nm. Compound concentrations that inhibited CPE by 50% (EC50) and developed cytotoxicity (CC50) were calculated using non-linear regression analysis.
Representative mean EC50 values obtained are also provided. In the inventors' experience, replicate EC50 values usually fall within three standard deviations of the mean.

[1] = read-out: Activity Range (RSV A2 EC50)
[2] = mean EC50, read-out: RSV A2 EC50

| SMILES | EC50 [1] [nM] | EC50 [2] [nM] |
| --- | --- | --- |
| Cc1nocc1C(=O)N1CCN2C(=O)c3cccn3CC12c1ccc(OC(F)F)cc1 (stereo not shown) [Compound 1, 10a-[4-(difluoromethoxy)phenyl]-1-[(3-methyl-1,2-oxazol-4-yl)carbonyl]-2,3,10,10a-tetrahydro-1H,5H-imidazo[1,2-a]pyrrolo[1,2-d]pyrazin-5-one] | 50 to 99 | 89 |
| Cc1nocc1C(=O)N1CCN2C(=O)c3cccn3CC12c1ccc(F)cc1 (stereo not shown) [Compound 2] | < 49 | 21 |
| Cc1ocnc1C(=O)N1CCN2C(=O)c3cccn3CC12c1ccc(Cl)cc1 (stereo not shown) [Compound 3] | 100 to 499 | 140 |
| Cc1nocc1C(=O)N1CCN2C(=O)c3cccn3CC12c1ccc(Cl)cc1 (stereo not shown) [Compound 4] | < 49 | 19 |
| Cc1nocc1C(=O)N1CCN2C(=O)c3cccn3CC12c1cccc(F)c1 (stereo not shown) [Compound 5] | < 49 | 34 |
| COc1ccc(C23Cn4cccc4C(=O)N2CCN3C(=O)c2conc2C)cc1 (stereo not shown) [Compound 6] | 50 to 99 | 52 |
| O=C(c1cocn1)N1CCN2C(=O)c3cccn3CC12c1ccc(F)cc1 (stereo not shown) [Compound 7] | 100 to 499 | 410 |
| COc1ccc(C23Cn4cccc4C(=O)N2CCN3C(=O)c2cocn2)cc1 (stereo not shown) [Compound 8] | 500 to 10000 | 1800 |
| Cc1ccc(C23Cn4cccc4C(=O)N2CCN3C(=O)c2conc2C)cc1 (stereo not shown) [Compound 9] | < 49 | 13 |
| CCN(CC)S(=O)(=O)c1ccc(C23Cn4cccc4C(=O)N2CCN3C(=O)c2conc2C)cc1 (stereo not shown) [Compound 10] | > 10000 |  |
| Cc1nocc1C(=O)N1CCN2C(=O)c3nccn3CC12c1ccc(Cl)cc1 (stereo not shown) [Compound 11] | 100 to 499 | 170 |
| Cc1nocc1C(=O)N1CCN2C(=O)c3c(C)ncn3CC12c1ccc(Cl)cc1 (stereo not shown) [Compound 12] | 500 to 10000 | 7500 |
| Cc1nocc1C(=O)N1CCN2C(=O)c3cncn3CC12c1ccc(Cl)cc1 (stereo not shown) [Compound 13] | 500 to 10000 | 1200 |
| Cc1ccc(C23Cn4cccc4C(=O)N2CCN3C(=O)c2cnoc2C)cc1F (stereo not shown) [Compound 14] | 50 to 99 | 94 |
| O=C(c1ccoc1)N1CCN2C(=O)c3cccn3CC12c1ccc(Cl)cc1 (stereo not shown) [Compound 15] | 50 to 99 | 56 |
| O=C(c1ccon1)N1CCN2C(=O)c3cccn3CC12c1ccc(Cl)cc1 (stereo not shown) [Compound 16] | 500 to 10000 | 980 |
| Cn1cc(C(=O)N2CCN3C(=O)c4cccn4CC23c2ccc(Cl)cc2)c(C(F)(F)F)n1 (stereo not shown) [Compound 17] | 500 to 10000 | 860 |
| O=C1c2cccn2CC2(c3ccc(Cl)cc3)N1CCN2C(=O)C1CC1 (stereo not shown) [Compound 18] | 500 to 10000 | 4100 |
| Cc1nocc1C(=O)N1CCN2C(=O)c3cccn3CC12C1CCCCC1 (stereo not shown) [Compound 19] | 50 to 99 | 65 |

| SMILES | EC50 [1] [nM] | EC50 [2] [nM] |
| --- | --- | --- |
| CCC12Cn3cccc3C(=O)N1CCN2C(=O)c1conc1C (stereo not shown) [Compound 20] | 500 to 10000 | 6700 |
| Cc1nocc1C(=O)N1CCN2C(=O)c3cccn3CC12C(C)(C)C (stereo not shown) [Compound 21] | > 10000 |  |
| Cc1nocc1C(=O)N1CCN2C(=O)c3ccc(Cl)n3CC12c1ccc(Cl)cc1 (stereo not shown) [Compound 22, 8-chloro-10a-(4-chlorophenyl)-1-[(3-methyl-1,2-oxazol-4-yl)carbonyl]-2,3,10,10a-tetrahydro-1H,5H-imidazo[1,2-a]pyrrolo[1,2-d]pyrazin-5-one] | < 49 | 2.2 |
| COc1ccc(C23Cn4c(Cl)ccc4C(=O)N2CCN3C(=O)c2conc2C)cc1 (stereo not shown) [Compound 23] | < 49 | 8 |
| CC(=O)c1cc2n(c1)CC1(c3ccc(Cl)cc3)N(C(=O)c3cnoc3C)CCN1C2=O (stereo not shown) [Compound 24, 7-acetyl-10a-(4-chlorophenyl)-1-[(5-methyl-1,2-oxazol-4-yl)carbonyl]-2,3,10,10a-tetrahydro-1H,5H-imidazo[1,2-a]pyrrolo[1,2-d]pyrazin-5-one] | > 10000 |  |
| Cc1nocc1C(=O)N1CCN2C(=O)c3ccc(CN4CCOCC4)n3CC12c1ccc(Cl)cc1 (stereo not shown) [Compound 25, 10a-(4-chlorophenyl)-1-[(3-methyl-1,2-oxazol-4-yl)carbonyl]-8-(morpholin-4-ylmethyl)-2,3,10,10a-tetrahydro-1H,5H-imidazo[1,2-a]pyrrolo[1,2-d]pyrazin-5-one] | 50 to 99 | 65 |
| Cc1nocc1C(=O)N1CCN2C(=O)c3cc(CN4CCOCC4)cn3CC12c1ccc(Cl)cc1 (stereo not shown) [Compound 26] | > 10000 |  |
| Cc1nocc1C(=O)N1CCN2C(=O)c3cc(CN(C)C)cn3CC12c1ccc(Cl)cc1 (stereo not shown) [Compound 27] | 500 to 10000 | 9500 |
| Cc1nocc1C(=O)N1CCN2C(=O)c3ccc(CO)n3CC12c1ccc(Cl)cc1 (stereo not shown) [Compound 28] | 50 to 99 | 88 |
| Cc1nocc1C(=O)N1CCN2C(=O)c3cc(CO)cn3CC12c1ccc(Cl)cc1 (stereo not shown) [Compound 29] | 500 to 10000 | 1000 |
| Cc1nocc1C(=O)N1CCN2C(=O)c3cc(-c4cccnc4)cn3CC12c1ccc(Cl)cc1 (stereo not shown) [Compound 30, 10a-(4-chlorophenyl)-1-[(3-methyl-1,2-oxazol-4-yl)carbonyl]-7-(pyridin-3-yl)-2,3,10,10a-tetrahydro-1H,5H-imidazo[1,2-a]pyrrolo[1,2-d]pyrazin-5-one] | < 49 | 36 |
| Cc1nocc1C(=O)N1CCN2C(=O)c3cc(-c4cnn(C)c4)cn3CC12c1ccc(Cl)cc1 (stereo not shown) [Compound 31] | < 49 | 7.6 |
| Cc1oncc1C(=O)N1CCN2C(=O)c3ccc(-c4ccncc4)n3CC12c1ccc(Cl)cc1 (stereo not shown) [Compound 32, 10a-(4-chlorophenyl)-1-[(5-methyl-1,2-oxazol-4-yl)carbonyl]-8-(pyridin-4-yl)-2,3,10,10a-tetrahydro-1H,5H-imidazo[1,2-a]pyrrolo[1,2-d]pyrazin-5-one] | 500 to 10000 | 690 |
| Cc1nocc1C(=O)N1CCN2C(=O)c3ccc(-c4cccnc4)n3CC12c1ccc(Cl)cc1 (stereo not shown) [Compound 33] | 500 to 10000 | 3100 |
| COc1ccc(C23Cn4c(ccc4-c4cnn(C)c4)C(=O)N2CCN3C(=O)c2conc2C)cc1 (stereo not shown) [Compound 34] | 100 to 499 | 380 |
| Cc1nocc1C(=O)N1CCN2C(=O)c3cccn3CC12c1ccccc1 (stereo not shown) [Compound 35, 1-[(3-methyl-1,2-oxazol-4-yl)carbonyl]-10a-phenyl-2,3,10,10a-tetrahydro-1H,5H-imidazo[1,2-a]pyrrolo[1,2-d]pyrazin-5-one] | 50 to 99 | 54 |
| Cc1nocc1C(=O)N1CCN2C(=O)c3cccn3CC12c1ccc(N2CCCC2)cc1 (stereo not shown) [Compound 36, 1-[(3-methyl-1,2-oxazol-4-yl)carbonyl]-10a-[4-(pyrrolidin-1-yl)phenyl]-2,3,10,10a-tetrahydro-1H,5H-imidazo[1,2-a]pyrrolo[1,2-d]pyrazin-5-one] | 100 to 499 | 480 |
| Cc1nocc1C(=O)N1CCN2C(=O)c3cccn3CC12c1ccc(C#N)cc1 (stereo not shown) [Compound 37, 4-{1-[(3-methyl-1,2-oxazol-4-yl)carbonyl]-5-oxo-2,3-dihydro-1H,5H-imidazo[1,2-a]pyrrolo[1,2-d]pyrazin-10a(10H)-yl}benzonitrile] | 100 to 499 | 120 |
